According to patent EP4506015A1, “COMBINATION OF A MPS1 INHIBITOR AND AN ANTIBODY DRUG CONJUGATE” (Nerviano Medical Sciences S.r.l., priority 2023, dated 2025):

System: LS411N human colorectal cancer cells
Assay: LS411N colorectal cancer xenograft: tumor growth inhibition, tumor growth delay and tumor regressions
Assay type: in vivo, Balb/c-nude female mice
Conditions: for TGI: Day 18, vs vehicle; for Median Time to 500 mm3: study cut-off Day 67; for Tumor regressions at day 67: animals with regression of n=10 mice/group; for T/C: median time to 500 mm3, treated vs vehicle; for Tumor growth delay: time to 500 mm3 vs vehicle
Experimental: LS411N human colorectal cancer cells were maintained in RPMI-1640 cell culture medium supplemented with 10% fetal bovine serum at 37°C in an atmosphere of 5% CO2 in air. The cells in exponential growth phase were harvested and counted. Balb/c-nude female mice were inoculated subcutaneously at the right flank with 5x10^6 LS411N cells in 0.2 ml of PBS mixed with Matrigel (1:1) for tumor development. Six days after cell injection, animals having a tumor volume of about 200 mm^3 were randomized and allocated to 9 experimental groups (n=10 mice/group) for treatment with vehicle, compound of formula (II) at 13 mg/kg, compound of formula (II) at 20 mg/kg, tisotumab vedotin at 1 mg/kg, tisotumab vedotin at 4 mg/kg and the combinations of the two doses of compound of formula (II) with the two doses of tisotumab vedotin. Compound of formula (II) was administered intravenously every 4 days for 7 times (Days 0, 4, 8, 12, 16, 20 and 24) and tisotumab vedotin was administered intravenously once a week for two weeks (Days 0 and 7). On Day 0, tisotumab vedotin was given first and, after 1h, compound of formula (II) was administered).
Effect of treatment on tumor growth and body weight was evaluated twice times per week. Tumors were measured in two dimensions using a caliper, and the tumor volume was expressed in mm^3 using the formula: V=(L x W2)/2, where V is tumor volume, L is tumor length (the longest tumor dimension) and W is tumor width (the longest tumor dimension perpendicular to L).
From Day 18 onwards, some animals in the vehicle treated groups had to be euthanized due to tumors reaching the ethical endpoint (3000 mm^3), therefore tumor growth inhibition (TGI) for each treatment group was calculated on Day 18, when all the animals in the vehicle group were available for the calculation of the mean tumor volume.
Figure 2 and Figure 3a and Figure 3b show the tumor growth curves of individual animals in each group and the Kaplan-Meier curves representing the time needed for tumors to reach/exceed 500 mm^3, respectively. Study cut-off Day 67.
To better evaluate the combination benefit, tumor growth delay was evaluated as the time needed for tumors to reach/exceed a defined tumor volume (Table 2). The median time for tumors to reach 500 mm^3 was 7 days, 11 days, 14 days, 28 days and 37 days for vehicle, Compound of formula (II) 13 mg/kg, Compound of formula (II) 20 mg/kg, tisotumab vedotin 1 mg/kg and tisotumab vedotin 4 mg/kg single agent groups, respectively. All the combinations induced a strong tumor growth delay when compared to vehicle and single agent treated arms. The median time for tumors to reach 500 mm^3 in the combination at the lower doses of both agents, Compound of formula (II) 13 mg + tisotumab vedotin 1 mg/kg, was 65 days. For the other combination groups the median time for tumors to reach 500 mm^3 had not yet been reached at Day 67. The effect of the combination on tumor growth delay was more than additive for all the combination groups.

[1] = Compound of formula (II) 13 mg/kg iv every 4 days x7
[2] = Compound of formula (II) 13 mg/kg
[3] = Compound of formula (II) 20 mg/kg iv every 4 days x7
[4] = Compound of formula (II) 20 mg/kg
[5] = tisotumab vedotin 1 mg/kg iv Days 0 and 7
[6] = tisotumab vedotin 4 mg/kg iv Days 0 and 7

## CCc1cccc(CC)c1NC(=O)c1nn(C)c2c1CCc1cnc(Nc3ccc(N4CCC(N(C)C)CC4)cc3OC)nc1-2 [Compound of formula (II), N-(2,6-diethylphenyl)-8-({4-[4-(dimethylamino)piperidin-1-yl]-2-methoxyphenyl}-amino)-1-methyl-4,5-dihydro-1H-pyrazolo[4,3-h]quinazoline-3-carboxamide]
[1]
  Mean Tumor Volume (mm^3) Day 18: 751 mm^3
  Median Time to 500 mm3: 11 days
Compound of formula (II) 13 mg/kg iv every 4 days x7, 13 mg/kg
  TGI: 46.4%
[2]
  Tumor regressions at day 67: 0/10
  T/C: 157%
  Tumor growth delay: 4 days
[3]
  Mean Tumor Volume (mm^3) Day 18: 655 mm^3
  Median Time to 500 mm3: 14 days
Compound of formula (II) 20 mg/kg iv every 4 days x7, 20 mg/kg
  TGI: 52.6%
[4]
  Tumor regressions at day 67: 0/10
  T/C: 200%
  Tumor growth delay: 7 days

## Tisotumab vedotin
[5]
  control of tumor growth (individual tumor growth curves): controlled tumor growth initially, but between Days 14 and 20 all tumors started growing
  Mean Tumor Volume (mm^3) Day 18: 325 mm^3
  TGI: 76.8%
  Median Time to 500 mm3: 28 days
Tisotumab vedotin 1 mg/kg
  Tumor regressions at day 67: 0/10
  T/C: 400%
  Tumor growth delay: 21 days
[6]
  control of tumor growth (individual tumor growth curves): controlled tumor growth and induced tumor regressions initially, but after Day 20 tumors started to regrow as well
  Mean Tumor Volume (mm^3) Day 18: 147 mm^3
  TGI: 89.5%
  Median Time to 500 mm3: 37 days
Tisotumab vedotin 4 mg/kg
  Tumor regressions at day 67: 0/10
  T/C: 529%
  Tumor growth delay: 30 days
